Reference: patent publication US10913711B2, “Potent and selective inhibitors of monoamine transporters; method of making; and use thereof” (priority 2013, dated 2021)

target: NET (Rattus norvegicus (Rat), UniProt Q9WTR4); test: Norepinephrine Transporter Binding Assay ([3H]Nisoxetine, rat frontal cortex membranes); conditions: not given
Protocol: Binding affinities of all compounds were evaluated at the DAT, SERT, and NET in rat brain membranes using previously described methods:
Norepinephrine Transporter Binding Assay. Brains from male Sprague-Dawley rats weighing 200-225 g (Taconic Labs, Germantown, N.Y.) were removed, frontal cortex dissected and rapidly frozen. Membranes were prepared by homogenizing tissues in 20 volumes (w/v) of 50 mM Tris containing 120 mM NaCl and 5 mM KCl, (pH 7.4 at 25° C.), using a Brinkman Polytron and centrifuged at 50,000×g for 10 min at 4° C. The resulting pellet was resuspended in buffer, recentrifuged and resuspended in buffer to a concentration of 80 mg/mL. Ligand binding experiments were conducted in assay tubes containing 0.5 mL buffer for 60 min at 0-4° C. […] Nonspecific binding was determined using 1 mM desipramine. Incubations were terminated by rapid filtration through Whatman GF/B filters, presoaked in 0.05% polyethylenimine, using a Brandel R48 filtering manifold (Brandel Instruments Gaithersburg, Md.). The filters were washed twice with 3 mL cold buffer and transferred to scintillation vials. Beckman Ready Value (3.0 mL) was added and the vials were counted using a Beckman 6000 liquid scintillation counter (Beckman Coulter Instruments, Fullerton, Calif.). […] All compounds were tested as racemic mixtures.

Chain of NET (Q9WTR4 entry or part of it): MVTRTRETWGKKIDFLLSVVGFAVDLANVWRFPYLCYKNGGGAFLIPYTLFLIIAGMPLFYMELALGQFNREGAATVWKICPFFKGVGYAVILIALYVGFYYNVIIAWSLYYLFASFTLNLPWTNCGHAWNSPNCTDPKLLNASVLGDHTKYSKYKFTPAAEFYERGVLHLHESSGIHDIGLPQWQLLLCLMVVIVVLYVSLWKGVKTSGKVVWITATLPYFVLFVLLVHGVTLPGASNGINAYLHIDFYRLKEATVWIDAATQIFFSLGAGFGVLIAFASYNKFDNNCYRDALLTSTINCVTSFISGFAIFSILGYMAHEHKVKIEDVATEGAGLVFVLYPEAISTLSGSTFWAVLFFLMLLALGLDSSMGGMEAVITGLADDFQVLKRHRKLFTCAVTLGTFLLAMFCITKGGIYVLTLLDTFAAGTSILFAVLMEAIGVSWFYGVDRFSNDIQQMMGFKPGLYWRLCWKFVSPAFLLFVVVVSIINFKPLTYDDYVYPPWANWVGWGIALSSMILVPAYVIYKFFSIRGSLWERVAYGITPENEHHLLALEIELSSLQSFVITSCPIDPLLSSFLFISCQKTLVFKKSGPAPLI

O=C(CSC(c1ccc(F)cc1)c1ccc(F)cc1)NCCCc1ccccc1 [Compound 2v, 2-((Bis(4-fluorophenyl)methyl)thio)-N-(3-phenylpropyl)acetamide] was tested. Which Ki did it give?
Its Ki is > 100 µM.

How did the Ki turn out when O=C(CSC(c1ccc(Br)cc1)c1ccc(Br)cc1)NCCCCc1ccccc1 [Compound 2z, 2-((Bis(4-bromophenyl)methyl)thio)-N-(4-phenylbutyl)acetamide] was run?
Its Ki is > 100 µM.

CCCNC(=O)CSC(c1ccc(F)cc1)c1ccc(F)cc1 [Compound 2l, 2-((Bis(4-fluorophenyl)methyl)thio)-N-propylacetamide] was tested. Which Ki did it give?
Its Ki is 61.7 µM.

Fc1ccc(C(SCCN2CCN(CCCc3ccccc3)CC2)c2ccc(F)cc2)cc1 [Compound 7b, 1-(2-((Bis(4-fluorophenyl)methyl)thio)ethyl)-4-(3-phenylpropyl)piperazine] was tested. Which Ki did it give?
Its Ki is 1.89 ± 0.116 µM.

For O=C(CSC(c1ccccc1)c1ccccc1)NCC1CC1 [Compound 2o, 2-(Benzhydrylthio)-N-(cyclopropylmethyl)acetamide], which Ki is on record?
The Ki was > 100 µM.

NC(=O)C[S+]([O-])C(c1cccc(F)c1)c1cccc(F)c1 (stereo not drawn) [Compound 3c, 2-((Bis(3-fluorophenyl)methyl)sulfinyl)acetamide] was tested. Which Ki did it give?
The Ki was > 100 µM.

Which Ki does the source give for CCCNC(=O)CSC(c1ccccc1)c1ccccc1 [Compound 2k, 2-(Benzhydrylthio)-N-propylacetamide] here?
The Ki was 55.9 µM.

O=C(CSC(c1ccc(Br)cc1)c1ccc(Br)cc1)NCC1CC1 [Compound 2q, 2-((Bis(4-bromophenyl)methyl)thio)-N-(cyclopropylmethyl)acetamide] was tested. Which Ki did it give?
The Ki was > 100 µM.

How did the Ki turn out when CCCCNC(=O)CSC(c1ccccc1)c1ccccc1 [Compound 2r, 2-(Benzhydrylthio)-N-butylacetamide] was run?
The Ki was > 0.1 µM.

Which Ki does the source give for CC(O)CN1CCN(CC[S+]([O-])C(c2ccccc2)c2ccccc2)CC1 (racemic) [Compound 10a, 1-(4-(2-(Benzhydrylsulfinyl)ethyl)piperazin-1-yl)propan-2-ol] here?
The Ki was > 100 µM.

CC(O)CN1CCN(CC[S+]([O-])C(c2ccc(F)cc2)c2ccc(F)cc2)CC1 (racemic) [Compound 10d, 1-(4-(2-((Bis(4-fluorophenyl)methyl)sulfinyl)ethyl)piperazin-1-yl)propan-2-ol] was tested. Which Ki did it give?
The Ki was > 100 µM.

Which Ki does the source give for Cc1ccc(C(c2ccc(C)cc2)[S+]([O-])CC(N)=O)cc1 (stereo not drawn) [Compound 3a, 2-((Di-p-tolylmethyl)sulfinyl)acetamide] here?
Its Ki is > 100 µM.

For c1ccc(CCCNCCSC(c2ccccc2)c2ccccc2)cc1 [Compound 4f, N-(2-(benzhydrylthio)ethyl)-3-phenylpropan-1-amine], which Ki is on record?
The Ki was 3.91 µM.

With OC(Cc1ccccc1)CN1CCN(CCSC(c2ccc(F)cc2)c2ccc(F)cc2)CC1 (racemic) [Compound 9j, 1-(4-(2-((Bis(4-fluorophenyl)methyl)thio)ethyl)piperazin-1-yl)-3-phenylpropan-2-ol] as the compound, how does the Ki read?
Its Ki is 1.95 ± 0.227 µM.

With [O-][S+](CCN1CCN(CCCc2ccccc2)CC1)C(c1ccc(F)cc1)c1ccc(F)cc1 (stereo not drawn) [Compound 8b, 1-(2-((Bis(4-fluorophenyl)methyl)sulfinyl)ethyl)-4-(3-phenylpropyl)piperazine] as the compound, how does the Ki read?
Its Ki is 4.28 ± 0.343 µM.

How did the Ki turn out when CNC(=O)C[S+]([O-])C(c1ccccc1)c1ccccc1 (stereo not drawn) [Compound 3f, 2-(Benzhydrylsulfinyl)-N-methylacetamide] was run?
The Ki was > 100 µM.

Which Ki does the source give for CCCCNCC[S+]([O-])C(c1ccccc1)c1ccccc1 (stereo not drawn) [Compound 5b, N-(2-(benzhydrylsulfinyl)ethyl)butan-1-amine] here?
Its Ki is > 140 µM.

How did the Ki turn out when NC(=O)C[S+]([O-])C(c1cccc(Cl)c1)c1cccc(Cl)c1 (stereo not drawn) [Compound 3d, 2-((Bis(3-chlorophenyl)methyl)sulfinyl)acetamide] was run?
Its Ki is > 100 µM.

Which Ki does the source give for [O-][S+](CCNCCCc1ccccc1)C(c1ccc(F)cc1)c1ccc(F)cc1 (stereo not drawn) [Compound 5c, N-(2-((bis(4-fluorophenyl)methyl)sulfinyl)ethyl)-3-phenylpropan-1-amine] here?
Its Ki is 3.28 µM.

Which Ki does the source give for OC(Cc1ccccc1)CN1CCN(CCSC(c2ccccc2)c2ccccc2)CC1 (racemic) [Compound 9g, 1-(4-(2-(Benzhydrylthio)ethyl)piperazin-1-yl)-3-phenylpropan-2-ol] here?
The Ki was 1.43 ± 0.118 µM.

same assay, conditions: Table 1, thioacetamide and sulfinylacetamide analogs; rat brain membranes; racemic mixtures

With O=C(CSC(c1ccc(Br)cc1)c1ccc(Br)cc1)NCCCCc1ccccc1 [Compound 2z, 2-((Bis(4-bromophenyl)methyl)thio)-N-(4-phenylbutyl)acetamide] as the compound, how does the “NET Ki (nM) ± S.E.M.” value read?
Its value is “no displacement”.
